Patent US20060210622A1, “Surface modified particulate compositions of biologically active substances” (Skyepharma Canada Inc., priority 1999, published 2006)
Converted amounts (≈) assume the structure as drawn.

Experiments:
[1] = physchem; type: physicochemical
Protocol: Solubility of biologically active substances, particularly drug substances in lipophilic and hydrophilic solvents. […] The solvents mentioned in the following table were evaluated. Solubilities, determined by high performance liquid chromatography (HPLC) assay of the dissolved drug in water and several non-aqueous vehicles, are given the following table in units of mg/mL. Low solubility of this drug in either water or organic solvents renders it suitable for formulating as a stable surface modified particulate dispersion in a non-aqueous carrier system.

[2] = Precipitation behavior of benzyl benzoate solution transferred to water, optical microscope under polarized light; type: physicochemical
Text: A portion of the ursodiol solution in benzyl benzoate was transferred to water and shaken. A mixture containing oily droplets resulted. […] This observation makes it possible to further prepare compositions of ursodiol utilizing appropriate solvent system and surface active agents so that micron-sized particle will be generated spontaneously upon addition of these compositions in aqueous media.

CCC(C)n1ncn(-c2ccc(N3CCN(c4ccc(OCC5COC(Cn6cncn6)(c6ccc(Cl)cc6Cl)O5)cc4)CC3)cc2)c1=O (stereo not shown) [Itraconazole]
Solubility in pharmaceutically acceptable lipophilic vehicles [1]: very poorly soluble | solubility ([1]; water, Solubility of Itraconazole): 10 µg/mL (≈ 14.2 µM)

C[C@H](CCC(=O)O)[C@H]1CC[C@H]2[C@@H]3[C@@H](O)C[C@@H]4C[C@H](O)CC[C@]4(C)[C@H]3CC[C@]12C [ursodiol]
Size of crystalline particles observed in the mixture ([2]; benzyl benzoate solution in water, optical microscope, polarized light): below 10 micron | Precipitation on transfer of solution to water ([2]; benzyl benzoate solution transferred to water and shaken): No precipitation was seen occurring
